Test results as given in patent US4693992A, “Bacitracin-metal-polyether antibiotic complexes” (International Minerals & Chemical Corp., priority 1985, dated 1987).

Assays:
[1] = Weight gain and feed utilization in chicks, 12 days (Example 14); assay type: in vivo, chicken; conditions: .0066% in feed; for Gain/Feed Data / Gains/gram Data: 12 days; for Gain/Feed Index Relative to #1 / Gains Index Relative to #1: #1 = unmedicated; for Gain/Feed Index Relative to #2 / Gains Index Relative to #2: #2 = zinc bacitracin
Description: (§1) This example describes experimetnal testing of complexes of the present invention as feed additives for improving weight gain or feed utilization efficiency in birds. Test animals were male meat-type chickens (Hubbard strain). Fluorescent room lights were on a 16 hours light/8 hours dark schedule. The chicks were allotted to the pens on the basis of weight classes, and chicks in the even numbered pens were wing banded. Group weights were obtained at the start and individual weights at the termination of the experiment. Chicks weighing between 55 and 65 grams were selected for the test. The test compounds were blended with a basal feed ration (shown in Table 2) at the indicated concentration. Birds fed […] and feed supplemented with zinc bacitracin (Baciferm® 50, International Minerals and Chemical Corp.) were used as controls. The test was continued for 11 days, after which individual weights, pen weight and feed consumption were recorded and analyzed.
All of the bacitracin-metal-polyether antibiotic complexes tested produced statistically significant increases in gains compared to the unmedicated basal ration.
The test involving test compounds 1 and 3-14 consisted of 5 replicates of 7 chicks and those involving test compound 2 consisted of 6 replicates of 7 chicks. The tests were continued for 12 days, after which individual weight gains and feed conusumption were recorded and analyzed.

[2] = tested on: Eimeria tenella; assay: Anticoccidial activity in chickens inoculated with Eimeria tenella (Example 12); assay type: in vivo, chicken; conditions: for Cecal Bleeding / Gain/Bird Days 0-3 / Gain/Bird Days 4-10: regrouped part of Table 2
Description: (§2) This example describes experimental testing of complexes of this invention for anticoccidial activity. Anticoccidial activities of test compounds were determined by administering the compounds (in feed) to chickens inoculated with active oocysts of Eimeria tenella. The test compounds, which are listed in Table 1 below, included four bacitracin-metal-polyether antibiotic complexes prepared according to the procedures described above. In addition, sodium lysocellin, regular bacitracin, sodium monensin, sodium lasolocid, and unmedicated inoculated and noninoculated controls were included for comparative purposes.
(§3) The test animals were Hubbard White Mountain male chicken (broiler strain) that were 5 days old at the beginning of the test. Each experimental compound was administered in a chick starter diet (Table 2) at a level of 80 g/ton and 120 g/ton. At 7 days of age, chicks were individually weighed, banded, and started on their respective treatments. Each treatment was replicated three times with five birds per replicate for a total of 15 birds per group. The test period was 10 days.
Seventy-two hours after the initiation of medication, birds were reweighed and orally inoculated with approximately 100,000 Eimeria tenella oocysts suspended in a 1 cc dose of saline. The following criteria were then evaluated over the next seven days:
A satisfactory challenge was obtained with Eimeria tenella.

[3] = Weight gain and feed utilization efficiency in chicks, 11 days (Example 13); assay type: in vivo, chicken; parameters: key to Average Weight: average weight in grams; conditions: .00275% in rye basal diet; for Average Gain / Gain/Feed Ratio: 11 days; for Average Weight / Gain/Feed: Table 4; for Average Gain Index / Gain/Feed Ratio Index: unmedicated = 100
Description: as §1

[4] = tested on: Eimeria tenella; assay: Anticoccidial activity in chickens inoculated with Eimeria tenella oocysts (Example 11); assay type: in vivo; conditions: for Morbidity / Incidence of Bloody Droppings: 4th-6th day; for Morbidity: birds affected/birds in group; for Mortality: 4th-7th day, birds dead/birds in group; for F/G Day 0-3 / F/G Day 4-10: feed per gain
Description: as §2, §3
Seventy-two hours after the initiation of medication, birds were reweighed and orally inoculated with approximately 100,000 Eimeria tenella oocysts suspended in a 1 cc dose of saline. The following criteria were then evaluated over the next seven days: […]
a. morbidity (4th-6th day) b. mortality (4th-7th day) c. incidence of bloody droppings (4th-6th day)

[5] = tested on: buffered rumen fluid; assay: Rumen screen, in vitro ruminal volatile fatty acid ratio (Examples 15, 16); assay type: cell-based, steer; conditions: 5 ppm, Neg. Control 1.39
Description: Rumen fluid was removed from a fistulated steer and strained through a cheesecloth. An equal amount of pH 7 buffer was added to strained rumen fluid. After layering occurred, the lower layer was saved and again diluted with equal amount of buffer. Ten ml. portions of buffered rumen fluid were added to fermentation vessels containing 500 mg. fresh finely ground cattle ration, 1 mg cellubiose and a test compound listed in Table 1 below at the indicated concentration. The fermentation vesels were outfitted with one-way gas valves, placed in an incubator and shaken for 24 hours at 38° C. Fermentation was stopped by addition of 1 ml mercuric chloride. The liquid was decanted and analyzed for volatile fatty acids by gas chromatography. Test results are summarized in Table 1, wherein Bac=bacitracin.
The procedures of Example 15 were repeated in all essential details with the test compounds and concentrations listed in Table 1 below, as are the results of the test.

In the case of “Bacitracin-Sodium-Lysocellin Complex [Example 5]”, the “Gain/Feed Data” value [1] is reported as “.595”, the “Gains/gram Data” value [1] is reported as 212.4 gram and the “Gain/Feed Index Relative to #1” value [1] is reported as 105.7. The “Gains Index Relative to #1” value [1] was 114.8, the “Gain/Feed Index Relative to #2” value [1] was 99.8 and the “Gains Index Relative to #2” value [1] was 101.3. The “Cecal Bleeding” value ([2]; 14 g/ton Lasalocid (Approx.)) was “Severe”, the “Gain/Bird Days 0-3” value ([2]; 14 g/ton Lasalocid (Approx.)) was 59.9 and the “Gain/Bird Days 4-10” value ([2]; 14 g/ton Lasalocid (Approx.)) was 147.7. The “anticoccidial activity (in words)” value ([2]; 36 (0.30 of 120) grams per ton) was “fair anticoccidial activity”, the “Cecal Bleeding” value ([2]; 36 g/ton Lasalocid (Approx.)) was “Moderate” and the “Gain/Bird Days 0-3” value ([2]; 36 g/ton Lasalocid (Approx.)) was 58.6. For the same substance, the “Gain/Bird Days 4-10” value ([2]; 36 g/ton Lasalocid (Approx.)) was 169.4, the “Incidence of Bloody Droppings” value ([2]; 80 g/ton in feed) was “Severe” and the Morbidity ([2]; 80 g/ton in feed) was 11/15. For the same substance, the Mortality ([2]; 80 g/ton in feed) was 0/15, the “F/G Day 0-3” value ([2]; 80 g/ton in feed) was 1.68 and the “Gain/Bird Grams Day 0-3” value ([2]; 80 g/ton in feed) was 59.9 Grams. For the same substance, the “F/G Day 4-10” value ([2]; 80 g/ton in feed) was 2.12, the “Gain/Bird Grams Day 4-10” value ([2]; 80 g/ton in feed) was 147.7 Grams and the “Cecal bleeding associated with E. tenella infections” value ([2]; 80 gram per ton) was “severe”. For the same substance, the “Incidence of Bloody Droppings” value ([2]; 120 g/ton in feed) was “Moderate”, the Morbidity ([2]; 120 g/ton in feed) was 8/15 and the Mortality ([2]; 120 g/ton in feed) was 0/15. For the same substance, the “F/G Day 0-3” value ([2]; 120 g/ton in feed) was 1.65, the “Gain/Bird Grams Day 0-3” value ([2]; 120 g/ton in feed) was 58.6 Grams and the “F/G Day 4-10” value ([2]; 120 g/ton in feed) was 1.83. For the same substance, the “Gain/Bird Grams Day 4-10” value ([2]; 120 g/ton in feed) was 169.7 Grams, the “anticoccidial activity (in words)” value ([2]; 120 grams per ton) was “good anticoccidial activity” and the “Average Gain” value [3] was 214 g. The “Gain/Feed Ratio” value [3] was 63.1, the “Average Weight” value [3] was 274.8 and the Gain/Feed [3] was 63.1. For the same substance, the “Average Gain Index” value [3] was 104.2, the “Gain/Feed Ratio Index” value [3] was 99.0 and the Morbidity ([4]; 80 g/ton in feed) was 4/15. The Mortality ([4]; 80 g/ton in feed) was 0/15, the “Gain, Grams Day 0-3” value ([4]; 80 g/ton in feed) was 56.1 Grams and the “Gain, Grams Day 4-10” value ([4]; 80 g/ton in feed) was 219.9 Grams. For the same substance, the “F/G Day 0-3” value ([4]; 80 g/ton in feed) was 1.70, the “F/G Day 4-10” value ([4]; 80 g/ton in feed) was 1.62 and the “Incidence of Bloody Droppings” value ([4]; 120 g/ton in feed) was “Moderate”. The Morbidity ([4]; 120 g/ton in feed) was 1/15, the Mortality ([4]; 120 g/ton in feed) was 1/15 and the “Gain, Grams Day 0-3” value ([4]; 120 g/ton in feed) was 58.8 Grams. For the same substance, the “Gain, Grams Day 4-10” value ([4]; 120 g/ton in feed) was 228.3 Grams, the “F/G Day 0-3” value ([4]; 120 g/ton in feed) was 1.72 and the “F/G Day 4-10” value ([4]; 120 g/ton in feed) was 1.62.

For “Bacitracin-Manganese-Lysocellin Complex [Example 3]”, the “Gain/Feed Data” value [1] was “.588”, the “Gains/gram Data” value [1] was 202.0 gram and the “Gain/Feed Index Relative to #1” value [1] was 104.4. For the same substance, the “Gains Index Relative to #1” value [1] was 109.1, the “Gain/Feed Index Relative to #2” value [1] was 98.6 and the “Gains Index Relative to #2” value [1] was 96.4. For the same substance, the “Cecal Bleeding” value ([2]; 14 g/ton Lasalocid (Approx.)) was “Moderate”, the “Gain/Bird Days 0-3” value ([2]; 14 g/ton Lasalocid (Approx.)) was 61.3 and the “Gain/Bird Days 4-10” value ([2]; 14 g/ton Lasalocid (Approx.)) was 154.0. The “Cecal Bleeding” value ([2]; 36 g/ton Lasalocid (Approx.)) was “Slight-Moderate”, the “Gain/Bird Days 0-3” value ([2]; 36 g/ton Lasalocid (Approx.)) was 61.3 and the “Gain/Bird Days 4-10” value ([2]; 36 g/ton Lasalocid (Approx.)) was 202.4. For the same substance, the “Incidence of Bloody Droppings” value ([2]; 80 g/ton in feed) was “Moderate”, the Morbidity ([2]; 80 g/ton in feed) was 10/15 and the Mortality ([2]; 80 g/ton in feed) was 0/15. For the same substance, the “F/G Day 0-3” value ([2]; 80 g/ton in feed) was 1.81, the “Gain/Bird Grams Day 0-3” value ([2]; 80 g/ton in feed) was 61.3 Grams and the “F/G Day 4-10” value ([2]; 80 g/ton in feed) was 2.01. The “Gain/Bird Grams Day 4-10” value ([2]; 80 g/ton in feed) was 154.0 Grams, the Morbidity ([2]; 120 g/ton in feed) was 2/15 and the Mortality ([2]; 120 g/ton in feed) was 0/15. The “F/G Day 0-3” value ([2]; 120 g/ton in feed) was 1.58, the “Gain/Bird Grams Day 0-3” value ([2]; 120 g/ton in feed) was 61.3 Grams and the “F/G Day 4-10” value ([2]; 120 g/ton in feed) was 1.74. For the same substance, the “Gain/Bird Grams Day 4-10” value ([2]; 120 g/ton in feed) was 202.4 Grams, the “anticoccidial activity (in words)” value ([2]; 120 grams per ton) was “good anticoccidial activity” and the “Average Gain” value [3] was 215 g. For the same substance, the “Gain/Feed Ratio” value [3] was 64.6, the “Average Weight” value [3] was 274.8 and the Gain/Feed [3] was 64.6. The “Average Gain Index” value [3] was 104.5, the “Gain/Feed Ratio Index” value [3] was 101.3 and the “anticoccidial activity (in words)” value ([4]; 80 and 120 g/ton, mild E. tenella challenge) was “excellent anticoccidial activity”. For the same substance, the “Incidence of Bloody Droppings” value ([4]; 80 g/ton in feed) was “None”, the Morbidity ([4]; 80 g/ton in feed) was 1/15 and the Mortality ([4]; 80 g/ton in feed) was 0/15. The “Gain, Grams Day 0-3” value ([4]; 80 g/ton in feed) was 61.7 Grams, the “Gain, Grams Day 4-10” value ([4]; 80 g/ton in feed) was 226.6 Grams and the “F/G Day 0-3” value ([4]; 80 g/ton in feed) was 1.62. For the same substance, the “F/G Day 4-10” value ([4]; 80 g/ton in feed) was 1.59, the “Incidence of Bloody Droppings” value ([4]; 120 g/ton in feed) was “None” and the Morbidity ([4]; 120 g/ton in feed) was 1/15. For the same substance, the Mortality ([4]; 120 g/ton in feed) was 0/15, the “Gain, Grams Day 0-3” value ([4]; 120 g/ton in feed) was 57.7 Grams and the “Gain, Grams Day 4-10” value ([4]; 120 g/ton in feed) was 231.8 Grams. For the same substance, the “F/G Day 0-3” value ([4]; 120 g/ton in feed) was 1.68 and the “F/G Day 4-10” value ([4]; 120 g/ton in feed) was 1.61.

With sodium lysocellin [reference compound] the “A/P Ratio” value ([5]; Example 15, 24 hours at 38° C.) was 1.07 and the “A/P Ratio” value ([5]; Example 16) was 1.07.
